Experimental data: US6387935B1, “Polycyclic dihydrothiazoles having substituted alkyl radicals in the two-position, process for their preparation, and their use as pharmaceuticals” (Aventis Pharma Deutschland GmbH, priority 1999, dated 2002)
Several values for one entry are separate records, joined by “and”; a condition that tells them apart may be missing. Equal values may be shown once.

How the values were obtained:
NMRI mice = assay: Anorectic action: cumulated evaporated milk consumption after oral administration; assay type: in vivo; settings: for cumulated milk consumption of the treated animals (male): oral dose 50 mg/kg via stomach tube, male NMRI mice after 24 hours feed withdrawal, milk offered 30 minutes after dosing, consumption determined half-hourly for 7 hours; for Reduction of the cumulated milk consumption in % of the control: oral dose 50 mg/kg, male NMRI mice, compared with untreated control animals
Experimental: The anorectic action was tested on male or female NMRI mice. After withdrawal of feed for 24 hours, the test preparation was administered via a stomach tube. Kept individually and with free access to drinking water, the animals were offered evaporated milk 30 minutes after giving the preparation. The consumption of evaporated milk was determined half-hourly for 7 hours and the general condition of the animals was observed. The measured milk consumption was compared with that of the untreated control animals.

SMILES	cumulated milk consumption of the treated animals (male) (NMRI mice; 50 mg/kg)	Reduction of the cumulated milk consumption in % of the control (NMRI mice; 50 mg/kg)	cumulated milk consumption of the treated animals (male) (NMRI mice; Hydrobromide, 50 mg/kg)	Reduction of the cumulated milk consumption in % of the control (NMRI mice; Hydrobromide, 50 mg/kg)	melting point	cumulated milk consumption of the treated animals (male) (NMRI mice)	Reduction of the cumulated milk consumption in % of the control (NMRI mice)
Br.OC12N=C(COc3ccc(Cl)cc3Cl)SC1Cc1cc(Cl)ccc12 (stereo not shown) [Example 2]	5/0.34 ml	88%	–	–	–	–	–
Br.OC12N=C(COc3ccc(Cl)cc3Cl)SC1Cc1cc(Cl)ccc12 (stereo not shown) [Example 6, 6-Chloro-2-(2,4-dichlorophenoxymethyl)-8,8a-dihydroindeno[1,2-d]thiazol-3a-ol Hydrobromide]	–	–	5/0.22 ml	95%	170 °C	–	–
OC12N=C(CSCc3ccccc3)SC1Cc1cc(Cl)ccc12 (stereo not shown) [Example 12, 2-Benzylsulfanylmethyl-6-chloro-8,8a-dihydroindeno [1,2-d]thiazol-3a-ol]	–	–	–	–	102 to 104 °C and 102 °C	5/1.36 ml	71%
CC(C)(C)c1ccc(OCC2=NC3(O)c4ccc(Cl)cc4CC3S2)cc1 (single isomer, unassigned) [Example 3]	5/0.78 ml	73%	–	–	–	–	–
CC(C)(C)c1ccc(OCC2=NC3(O)c4ccc(Cl)cc4CC3S2)cc1 (single isomer, unassigned) [Example 9, 2-(4-tert-butylphenoxymethyl)-6-chloro-8,8a-dihydroindeno [1,2-d]thiazol-3a-ol]	5/0.26 ml	93%	–	–	123 °C and 122 to 124 °C	–	–
OC12N=C(COc3ccccc3)SC1Cc1cc(Cl)ccc12 (stereo not shown) [Example 1, 6-chloro-2-phenoxymethyl-8,8a-dihydroindeno[1,2-d]thiazol-3a-ol]	–	–	–	–	121 °C	5/0.42 ml	86%
